The target of one data set is Mu-type opioid receptor (Cavia porcellus, UniProt P97266). In words: Displacement of [3H]DAMGO from mu opioid receptor in guinea pig brain membranes after 120 mins by scintillation counting analysis. In kind it is cell membranes. In general terms: Loss of bound radioactivity is the signal in a displacement assay; it reports binding, not function.
Data set [1] concerns the target Sodium-dependent serotonin transporter (Homo sapiens) (UniProt P31645). The data set is described as follows: Binding affinity to serotonin transporter (unknown origin) at 1 uM.
Data set [2] deals with Sodium-dependent noradrenaline transporter (Homo sapiens) (UniProt P23975). The data set is described as follows: Binding affinity to noradrenaline transporter (unknown origin) at 1 uM.
The next data set deals with HepG2. The data set is described as follows: Cytotoxicity against human HepG2 cells at 1 to 100 uM incubated for 20 hrs under serum free condition by MTT assay. The following applies: hepg2, 20 h. It counts as cell-based. For orientation: Tetrazolium assays rely on reduction of a dye to a coloured formazan, in cell work by metabolically active cells.
Data set [3] concerns the target T1, Alpha-1A adrenergic receptor (Homo sapiens) (UniProt P35348).
T1 sequence (whole entry): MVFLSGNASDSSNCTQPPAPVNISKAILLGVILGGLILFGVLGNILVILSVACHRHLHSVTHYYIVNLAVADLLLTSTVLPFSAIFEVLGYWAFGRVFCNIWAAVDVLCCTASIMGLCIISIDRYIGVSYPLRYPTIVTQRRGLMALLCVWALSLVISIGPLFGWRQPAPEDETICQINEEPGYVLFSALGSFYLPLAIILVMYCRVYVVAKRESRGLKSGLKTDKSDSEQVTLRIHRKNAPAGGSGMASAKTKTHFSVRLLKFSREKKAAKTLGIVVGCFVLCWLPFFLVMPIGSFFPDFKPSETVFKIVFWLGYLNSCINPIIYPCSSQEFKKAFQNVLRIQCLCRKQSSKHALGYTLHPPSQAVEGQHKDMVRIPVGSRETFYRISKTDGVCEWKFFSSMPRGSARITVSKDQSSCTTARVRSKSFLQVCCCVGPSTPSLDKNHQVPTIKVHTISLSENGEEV
The data set is described as follows: Binding affinity to alpha 1a adrenergic receptor (unknown origin) at 1 uM relative to control.

The target of data set [4] is T2, Alpha-2A adrenergic receptor (Homo sapiens) (UniProt P08913).
T2 sequence (whole entry): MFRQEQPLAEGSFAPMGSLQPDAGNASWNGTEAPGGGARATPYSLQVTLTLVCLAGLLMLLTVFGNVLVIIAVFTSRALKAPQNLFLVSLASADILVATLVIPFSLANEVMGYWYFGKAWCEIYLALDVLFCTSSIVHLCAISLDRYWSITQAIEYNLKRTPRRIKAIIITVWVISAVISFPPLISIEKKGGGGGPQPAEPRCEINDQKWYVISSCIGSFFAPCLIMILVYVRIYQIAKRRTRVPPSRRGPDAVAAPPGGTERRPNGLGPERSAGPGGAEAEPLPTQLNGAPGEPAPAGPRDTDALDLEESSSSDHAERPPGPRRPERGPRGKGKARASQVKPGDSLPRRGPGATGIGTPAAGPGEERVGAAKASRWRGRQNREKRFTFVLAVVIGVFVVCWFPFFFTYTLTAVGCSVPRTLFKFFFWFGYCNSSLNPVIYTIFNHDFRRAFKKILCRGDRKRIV
In words: Binding affinity to alpha 2a adrenergic receptor (unknown origin) at 1 uM relative to control.

A further data set has as its target T3, Cytochrome P450 1A2 (Homo sapiens, UniProt P05177).
T3 sequence (P05177 whole entry): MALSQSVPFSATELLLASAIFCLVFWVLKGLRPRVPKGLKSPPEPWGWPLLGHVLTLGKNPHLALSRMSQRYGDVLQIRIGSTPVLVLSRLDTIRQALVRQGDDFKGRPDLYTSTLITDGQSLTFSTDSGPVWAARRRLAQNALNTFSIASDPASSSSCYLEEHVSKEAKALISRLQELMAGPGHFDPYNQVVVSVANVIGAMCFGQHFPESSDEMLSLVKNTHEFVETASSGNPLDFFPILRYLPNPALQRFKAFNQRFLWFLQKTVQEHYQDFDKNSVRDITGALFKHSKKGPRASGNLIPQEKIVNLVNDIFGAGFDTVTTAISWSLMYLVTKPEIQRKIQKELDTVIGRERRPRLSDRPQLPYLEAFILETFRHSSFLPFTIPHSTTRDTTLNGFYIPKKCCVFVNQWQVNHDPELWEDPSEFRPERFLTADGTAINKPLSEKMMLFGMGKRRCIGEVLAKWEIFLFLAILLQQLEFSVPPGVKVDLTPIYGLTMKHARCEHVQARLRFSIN
In words: Inhibition of recombinant human CYP1A2 at 1 uM by fluorescence assay. It counts as ADME. The following applies: recombinant enzyme.

For another data set, the target named is Cytochrome P450 2C19 (Homo sapiens, UniProt P33261). The data set is described as follows: Inhibition of recombinant human CYP2C19 at 1 uM by fluorescence assay. It counts as ADME. The following applies: recombinant enzyme.
The target in data set [5] is Kappa-type opioid receptor (Cavia porcellus) (UniProt P41144). The data set is described as follows: Displacement of [3H]U69,593 from kappa opioid receptor in guinea pig brain membrane at 1 uM after 120 mins by scintillation counting analysis relative to control. It counts as cell membranes.
Data set [6] concerns the target T4, Sigma intracellular receptor 2 (Rattus norvegicus, UniProt Q5U3Y7).
T4 sequence (Q5U3Y7 whole entry): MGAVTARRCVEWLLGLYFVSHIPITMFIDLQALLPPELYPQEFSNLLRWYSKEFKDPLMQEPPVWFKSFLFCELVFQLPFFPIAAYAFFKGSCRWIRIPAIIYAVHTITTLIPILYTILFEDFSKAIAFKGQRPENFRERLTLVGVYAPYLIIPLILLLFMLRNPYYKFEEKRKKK
The data set is described as follows: Displacement of [3H]-di-o-tolylguanidine from sigma2 receptor in rat liver membranes incubated for 120 mins in the presence of sigma1 receptor ligand (+)-pentazocine by scintillation counting method. In kind it is cell membranes.

Data set [7] concerns the target T5, 5-hydroxytryptamine receptor 1A (Homo sapiens) (UniProt P08908).
T5 sequence (whole entry): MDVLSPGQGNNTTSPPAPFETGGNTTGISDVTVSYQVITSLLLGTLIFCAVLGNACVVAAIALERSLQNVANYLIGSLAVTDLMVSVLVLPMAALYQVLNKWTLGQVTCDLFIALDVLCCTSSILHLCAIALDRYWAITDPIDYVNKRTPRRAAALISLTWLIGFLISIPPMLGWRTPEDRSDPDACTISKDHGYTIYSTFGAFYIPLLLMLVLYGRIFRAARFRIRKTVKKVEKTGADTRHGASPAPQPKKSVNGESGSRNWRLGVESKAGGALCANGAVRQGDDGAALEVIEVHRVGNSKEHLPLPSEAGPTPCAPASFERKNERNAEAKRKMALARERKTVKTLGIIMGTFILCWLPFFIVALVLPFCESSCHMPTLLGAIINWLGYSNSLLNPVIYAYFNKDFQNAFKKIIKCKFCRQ
In words: Binding affinity to 5-HT1AR (unknown origin) at 1 uM relative to control.

Data set [8] concerns the target Delta-type opioid receptor (Rattus norvegicus, UniProt P33533). In words: Displacement of [3H]DPDPE from delta opioid receptor in rat membranes after 120 mins by scintillation counting analysis. In kind it is cell membranes.
The next data set concerns the target Cytochrome P450 3A4 (Homo sapiens, UniProt P08684). In words: Inhibition of recombinant human CYP3A4 at 1 uM by fluorescence assay. It counts as ADME. The note with it: recombinant enzyme.
In data set [9] the target is 5-hydroxytryptamine receptor 2B (Homo sapiens) (UniProt P41595). In words: Binding affinity to 5-HT2BR (unknown origin) at 1 uM relative to control.

Usually Ki stands for the equilibrium dissociation constant of an inhibitor or competing ligand from its target. Usually inhibition stands for the share of the control response that was lost under treatment.

Activity calls are given as the source filed them. No cut-off for these calls is given here.

Sodium-dependent noradrenaline transporter (Homo sapiens), sequence (P23975 whole entry): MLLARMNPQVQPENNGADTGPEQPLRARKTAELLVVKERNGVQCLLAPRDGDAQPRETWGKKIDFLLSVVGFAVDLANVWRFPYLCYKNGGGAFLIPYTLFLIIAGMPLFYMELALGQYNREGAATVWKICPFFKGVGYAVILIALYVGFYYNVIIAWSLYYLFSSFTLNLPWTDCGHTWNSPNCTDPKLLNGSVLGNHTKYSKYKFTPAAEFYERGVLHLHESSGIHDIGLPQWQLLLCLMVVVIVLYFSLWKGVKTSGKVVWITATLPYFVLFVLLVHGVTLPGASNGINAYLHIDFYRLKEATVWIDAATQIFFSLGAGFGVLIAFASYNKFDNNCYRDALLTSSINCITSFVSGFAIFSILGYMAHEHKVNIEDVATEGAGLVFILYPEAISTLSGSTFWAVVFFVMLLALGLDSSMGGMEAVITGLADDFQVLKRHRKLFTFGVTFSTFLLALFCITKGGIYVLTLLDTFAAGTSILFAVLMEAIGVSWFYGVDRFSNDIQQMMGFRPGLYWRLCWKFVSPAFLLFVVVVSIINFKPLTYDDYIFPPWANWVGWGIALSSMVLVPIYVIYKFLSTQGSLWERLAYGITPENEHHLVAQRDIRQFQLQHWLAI
Cytochrome P450 3A4, sequence (P08684 whole entry): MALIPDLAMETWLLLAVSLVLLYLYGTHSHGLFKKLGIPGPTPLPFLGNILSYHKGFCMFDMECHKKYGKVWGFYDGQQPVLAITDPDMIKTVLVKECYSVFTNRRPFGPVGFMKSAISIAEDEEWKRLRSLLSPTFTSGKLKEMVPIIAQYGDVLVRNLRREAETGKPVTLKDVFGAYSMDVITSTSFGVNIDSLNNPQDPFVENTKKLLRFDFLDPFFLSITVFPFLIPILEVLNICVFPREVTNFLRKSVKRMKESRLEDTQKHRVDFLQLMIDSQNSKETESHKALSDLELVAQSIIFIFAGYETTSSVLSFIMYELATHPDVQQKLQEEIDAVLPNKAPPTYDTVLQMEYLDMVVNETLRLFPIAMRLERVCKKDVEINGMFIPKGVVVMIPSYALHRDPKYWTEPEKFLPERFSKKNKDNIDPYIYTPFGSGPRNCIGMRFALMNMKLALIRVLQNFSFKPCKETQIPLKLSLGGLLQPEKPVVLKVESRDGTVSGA
Delta-type opioid receptor, sequence (P33533 whole entry): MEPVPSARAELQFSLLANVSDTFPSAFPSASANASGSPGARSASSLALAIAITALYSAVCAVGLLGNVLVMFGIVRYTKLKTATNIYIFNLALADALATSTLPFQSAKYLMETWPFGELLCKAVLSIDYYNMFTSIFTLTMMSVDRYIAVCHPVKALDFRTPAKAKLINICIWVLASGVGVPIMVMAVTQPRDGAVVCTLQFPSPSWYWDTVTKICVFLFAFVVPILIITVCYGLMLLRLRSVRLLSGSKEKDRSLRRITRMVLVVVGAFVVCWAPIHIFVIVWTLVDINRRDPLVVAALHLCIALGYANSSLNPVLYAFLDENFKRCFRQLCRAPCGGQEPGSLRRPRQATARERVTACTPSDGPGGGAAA
5-hydroxytryptamine receptor 2B (Homo sapiens), sequence (P41595 whole entry): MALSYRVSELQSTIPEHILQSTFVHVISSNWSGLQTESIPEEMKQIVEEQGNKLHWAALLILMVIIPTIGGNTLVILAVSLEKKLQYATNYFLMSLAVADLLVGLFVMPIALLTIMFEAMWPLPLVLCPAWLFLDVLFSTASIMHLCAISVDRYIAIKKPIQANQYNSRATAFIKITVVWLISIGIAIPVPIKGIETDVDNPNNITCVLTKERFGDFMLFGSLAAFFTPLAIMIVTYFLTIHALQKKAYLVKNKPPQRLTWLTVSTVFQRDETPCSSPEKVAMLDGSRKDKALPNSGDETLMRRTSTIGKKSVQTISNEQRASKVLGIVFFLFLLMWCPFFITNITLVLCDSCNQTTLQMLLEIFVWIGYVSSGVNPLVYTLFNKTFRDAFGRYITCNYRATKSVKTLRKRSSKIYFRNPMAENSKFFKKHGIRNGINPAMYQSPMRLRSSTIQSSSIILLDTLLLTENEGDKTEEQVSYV
Sodium-dependent serotonin transporter (Homo sapiens), sequence (P31645 whole entry, looked up): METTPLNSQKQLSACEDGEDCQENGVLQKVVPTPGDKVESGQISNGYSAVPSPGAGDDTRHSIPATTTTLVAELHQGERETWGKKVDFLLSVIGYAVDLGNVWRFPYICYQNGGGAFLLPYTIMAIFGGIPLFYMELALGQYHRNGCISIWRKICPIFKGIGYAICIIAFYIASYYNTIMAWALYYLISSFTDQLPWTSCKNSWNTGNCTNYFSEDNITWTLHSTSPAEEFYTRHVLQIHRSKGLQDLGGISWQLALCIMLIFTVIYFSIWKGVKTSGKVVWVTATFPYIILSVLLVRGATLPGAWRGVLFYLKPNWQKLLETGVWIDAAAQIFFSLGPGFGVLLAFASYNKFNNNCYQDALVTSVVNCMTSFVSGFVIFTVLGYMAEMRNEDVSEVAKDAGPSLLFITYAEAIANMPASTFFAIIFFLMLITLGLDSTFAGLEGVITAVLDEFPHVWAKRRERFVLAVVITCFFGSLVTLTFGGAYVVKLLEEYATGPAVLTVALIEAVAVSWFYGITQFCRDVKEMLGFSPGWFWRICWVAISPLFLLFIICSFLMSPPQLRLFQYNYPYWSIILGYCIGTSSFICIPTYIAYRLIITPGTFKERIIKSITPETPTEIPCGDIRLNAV
Kappa-type opioid receptor (Cavia porcellus), sequence (P41144 whole entry): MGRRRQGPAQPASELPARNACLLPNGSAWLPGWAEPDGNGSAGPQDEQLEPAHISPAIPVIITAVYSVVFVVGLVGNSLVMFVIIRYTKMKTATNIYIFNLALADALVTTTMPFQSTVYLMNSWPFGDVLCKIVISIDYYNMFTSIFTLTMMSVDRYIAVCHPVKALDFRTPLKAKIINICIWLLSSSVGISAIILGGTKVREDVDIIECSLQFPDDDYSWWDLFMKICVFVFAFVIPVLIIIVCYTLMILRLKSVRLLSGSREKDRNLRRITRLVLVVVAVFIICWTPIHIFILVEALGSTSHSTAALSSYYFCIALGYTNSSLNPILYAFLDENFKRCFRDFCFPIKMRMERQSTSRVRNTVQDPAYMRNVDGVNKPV
Mu-type opioid receptor, sequence (P97266 whole entry): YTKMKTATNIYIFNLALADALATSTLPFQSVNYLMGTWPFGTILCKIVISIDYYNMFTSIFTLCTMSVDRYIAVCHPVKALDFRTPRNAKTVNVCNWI
Cytochrome P450 2C19, sequence (P33261 whole entry): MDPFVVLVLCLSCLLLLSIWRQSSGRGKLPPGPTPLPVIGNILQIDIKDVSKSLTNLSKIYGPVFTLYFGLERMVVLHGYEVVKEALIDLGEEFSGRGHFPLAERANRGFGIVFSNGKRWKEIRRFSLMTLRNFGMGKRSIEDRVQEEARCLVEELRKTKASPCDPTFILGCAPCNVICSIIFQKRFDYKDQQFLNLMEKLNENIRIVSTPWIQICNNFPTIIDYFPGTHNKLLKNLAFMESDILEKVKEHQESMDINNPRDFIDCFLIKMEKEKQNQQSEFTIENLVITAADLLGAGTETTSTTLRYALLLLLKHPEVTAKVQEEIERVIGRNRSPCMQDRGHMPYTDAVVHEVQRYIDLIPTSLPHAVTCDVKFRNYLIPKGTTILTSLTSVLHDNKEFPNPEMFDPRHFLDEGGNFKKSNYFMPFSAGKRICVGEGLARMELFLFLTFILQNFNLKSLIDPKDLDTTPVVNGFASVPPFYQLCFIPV

Regarding `COC1Cc2ccccc2[C@]2(CC[C@H](N(C)CC3CCCCC3)CC2)O1` (some centres undefined), the Ki was found to be 0.391 µM on Mu-type opioid receptor, 0.012 µM in data set [6] and 0.364 µM in data set [8]. Also, the result in data set [1] and in data set [2] was inactive. Also, the Activity entry in the data set with HepG2 is “Non-Toxic”; in data set [3], 68%; in data set [4] it was 93%; in data set [7], 60%; in data set [9], 62%. Also, the “inhibition (INH)” value at Cytochrome P450 1A2, at Cytochrome P450 2C19 and on Cytochrome P450 3A4 was “Not Active” in each case. The inhibition in data set [5] came out at 0%.
